In ChEMBL document CHEMBL5150071, “BAY-7081: A Potent, Selective, and Orally Bioavailable Cyanopyridone-Based PDE9A Inhibitor” (J Med Chem, 2022):
Active and inactive are the calls of the source. No cut-off for these calls is given here.

Assays:
[1] = biological target: High affinity cGMP-specific 3',5'-cyclic phosphodiesterase 9A (Homo sapiens, UniProt O76083); assay: Inhibition of full length human PDE9A expressed in Sf9 insect cells using [3H]-cGMP as substrate incubated for 60 mins by microbeta scintillation counter analysis
[2] = Selectivity index, ratio of IC50 for bovine brain PDE1 to IC50 for full length human PDE9A
[3] = species: Homo sapiens; assay: Selectivity index, ratio of IC50 for full length human PDE2A to IC50 for full length human PDE9A
[4] = species: Homo sapiens; assay: Selectivity index, ratio of IC50 for full length human PDE3B to IC50 for full length human PDE9A
[5] = species: Homo sapiens; assay: Selectivity index, ratio of IC50 for human platelet PDE5A to IC50 for full length human PDE9A
[6] = species: Homo sapiens; assay: Selectivity index, ratio of IC50 for full length human PDE7B to IC50 for full length human PDE9A
[7] = species: Homo sapiens; assay: Selectivity index, ratio of IC50 for full length human PDE8A to IC50 for full length human PDE9A
[8] = species: Homo sapiens; assay: Selectivity index, ratio of IC50 for full length human PDE10A to IC50 for full length human PDE9A
[9] = species: Homo sapiens; assay: Selectivity index, ratio of IC50 for full length human PDE11A to IC50 for full length human PDE9A
[10] = species: Homo sapiens; assay: Selectivity index, ratio of IC50 for full length human PDE4B to IC50 for full length human PDE9A
[11] = Selectivity index, ratio of IC50 for bovine PDE6 to IC50 for full length human PDE9A
[12] = biological target: T1, High affinity cGMP-specific 3',5'-cyclic phosphodiesterase 9A (Mus musculus) (UniProt O70628); assay: Inhibition of mouse PDE9A using [3H]-cGMP as substrate at 34 nM incubated for 60 mins by microbeta scintillation counter analysis relative to control
T1 sequence (whole entry): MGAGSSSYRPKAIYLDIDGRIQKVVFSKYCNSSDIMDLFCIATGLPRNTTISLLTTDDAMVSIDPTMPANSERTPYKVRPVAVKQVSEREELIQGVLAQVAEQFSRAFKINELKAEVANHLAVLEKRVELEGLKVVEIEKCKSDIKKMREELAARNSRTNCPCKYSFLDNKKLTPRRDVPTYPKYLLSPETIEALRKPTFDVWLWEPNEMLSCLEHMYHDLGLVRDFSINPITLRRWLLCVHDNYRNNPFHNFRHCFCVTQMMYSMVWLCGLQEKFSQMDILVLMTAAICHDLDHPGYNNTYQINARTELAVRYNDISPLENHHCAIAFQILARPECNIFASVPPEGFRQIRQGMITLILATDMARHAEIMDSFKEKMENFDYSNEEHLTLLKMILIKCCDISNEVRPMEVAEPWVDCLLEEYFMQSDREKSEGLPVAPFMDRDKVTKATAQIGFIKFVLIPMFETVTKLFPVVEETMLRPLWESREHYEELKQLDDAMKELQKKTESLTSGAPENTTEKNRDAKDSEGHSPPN

[13] = biological target: T2, High affinity cGMP-specific 3',5'-cyclic phosphodiesterase 9A (Rattus norvegicus) (UniProt Q8QZV1); assay: Inhibition of rat PDE9A using [3H]-cGMP as substrate at 42 nM incubated for 60 mins by microbeta scintillation counter analysis relative to control
T2 sequence (whole entry): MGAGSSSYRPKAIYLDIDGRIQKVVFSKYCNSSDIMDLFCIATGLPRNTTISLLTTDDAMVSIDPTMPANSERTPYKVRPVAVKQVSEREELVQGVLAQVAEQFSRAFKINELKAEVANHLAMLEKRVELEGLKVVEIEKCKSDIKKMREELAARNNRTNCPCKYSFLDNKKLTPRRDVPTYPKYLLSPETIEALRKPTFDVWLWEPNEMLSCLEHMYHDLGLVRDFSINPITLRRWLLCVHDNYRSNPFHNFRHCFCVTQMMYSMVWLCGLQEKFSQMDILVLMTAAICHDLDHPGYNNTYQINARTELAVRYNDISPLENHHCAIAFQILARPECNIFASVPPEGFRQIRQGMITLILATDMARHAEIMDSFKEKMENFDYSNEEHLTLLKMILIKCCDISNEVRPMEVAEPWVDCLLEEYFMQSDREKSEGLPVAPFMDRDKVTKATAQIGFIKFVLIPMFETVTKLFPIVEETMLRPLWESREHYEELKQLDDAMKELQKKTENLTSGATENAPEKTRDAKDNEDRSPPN

[14] = system: Rattus norvegicus; assay: In vivo inhibition of PDE9A in Sprague-Dawley rat assessed as increase in cGMP level in urine at 40 mg/kg, po measured after 85 mins by ELISA; assay type: functional, organism-based
[15] = Blood clearance in po or iv dosed Wistar rat measured over 24 hrs by LC-MS/MS analysis; assay type: ADME, organism-based; conditions: in vivo
[16] = Drug metabolism in rat hepatocytes assessed as glucuronidation of cyclic lactam at 10 uM incubated for 4 hrs by LC-MS/MS analysis; assay type: ADME, cell-based, Hepatocyte
[17] = Drug metabolism in cryopreserved human hepatocytes assessed as glucuronidation of cyclic lactam at 10 uM incubated for 4 hrs by LC-MS/MS analysis; assay type: ADME, cell-based, Hepatocyte
[18] = Selectivity index, ratio of IC50 for bovine PDE6 to IC50 for full length human PDE11A
[19] = Drug metabolism in rat hepatocytes assessed as glucuronidation at 10 uM incubated for 30 mins by LC-MS/MS analysis; assay type: ADME, cell-based, Hepatocyte; conditions: 0.5 h

Sequence of High affinity cGMP-specific 3',5'-cyclic phosphodiesterase 9A (O76083 whole entry): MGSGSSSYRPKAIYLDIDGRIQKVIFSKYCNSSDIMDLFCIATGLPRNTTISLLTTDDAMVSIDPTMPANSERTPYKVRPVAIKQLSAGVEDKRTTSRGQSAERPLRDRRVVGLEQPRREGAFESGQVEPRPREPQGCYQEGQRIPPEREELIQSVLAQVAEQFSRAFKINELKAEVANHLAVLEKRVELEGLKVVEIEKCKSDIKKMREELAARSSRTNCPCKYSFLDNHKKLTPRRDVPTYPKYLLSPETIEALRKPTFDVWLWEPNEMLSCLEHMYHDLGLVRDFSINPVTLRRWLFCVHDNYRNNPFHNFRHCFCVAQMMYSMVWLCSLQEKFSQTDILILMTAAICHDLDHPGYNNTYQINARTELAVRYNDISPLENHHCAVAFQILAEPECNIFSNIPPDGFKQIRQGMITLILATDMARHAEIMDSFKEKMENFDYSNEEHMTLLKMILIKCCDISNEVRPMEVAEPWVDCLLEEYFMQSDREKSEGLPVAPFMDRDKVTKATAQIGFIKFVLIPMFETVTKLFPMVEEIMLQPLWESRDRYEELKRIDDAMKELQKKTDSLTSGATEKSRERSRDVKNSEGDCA

`CCCC1CNCc2c1[nH]c(=O)c(C#N)c2N1CCC2(CC1)CC2` (stereo in doubt; form 1) showed an IC50 [1] greater than 10000 nM.
In the case of `CCCC1CNCc2c1[nH]c(=O)c(C#N)c2N1CCC2(CC1)CC2(F)F` (racemic), the Ratio IC50 [2] is reported as 30.
`CCCC1CNCc2c1[nH]c(=O)c(C#N)c2N1CCC2(CC1)CC2` (stereo in doubt; form 2) gave a Ratio IC50 [2] of 49, a Ratio IC50 [3] greater than 650 and a Ratio IC50 [4] greater than 650. The Ratio IC50 [5] was 143, the Ratio IC50 [6] was greater than 650 and the Ratio IC50 [7] was 97. For the same compound, the Ratio IC50 [8] was greater than 650, the Ratio IC50 [9] was 430 and the Ratio IC50 [10] was 238. The Ratio IC50 [11] was 101, the inhibition [12] was 50% and the inhibition [13] was 50%. The inhibition [14] was “Active”.
`CCCC1CNCc2c1[nH]c(=O)c(C#N)c2-c1ccc(C)cc1.Cl` (stereo not drawn) gave a Ratio IC50 [3] greater than 100, a Ratio IC50 [4] greater than 100 and a Ratio IC50 [5] greater than 100. The Ratio IC50 [6] was greater than 100, the Ratio IC50 [7] was greater than 100 and the Ratio IC50 [8] was greater than 100. The Ratio IC50 [9] was greater than 100, the Ratio IC50 [10] was greater than 100 and the CL [15] was 60 mL/min/kg. The Drug metabolism [16] was “Metabolite_Detected” and the Drug metabolism [17] was “Metabolite_Detected”.
In the case of `CCc1ccnc2c(N3CCC(C)(C)CC3)c(C#N)c(=O)[nH]c12`, the IC50 [1] is reported as 610 nM.
`Cc1ccc(-c2c3c([nH]c(=O)c2C#N)CCCC3)cc1` gave a Ratio IC50 [18] of 17.
`CCCCC1CCCc2c1[nH]c(=O)c(C#N)c2-c1ccc(C)cc1` (racemic) gave an IC50 [1] of 35 nM.
Compound `CCCC1CNCc2c1[nH]c(=O)c(C#N)c2N1CCC2(CCOC2)CC1` (racemic) has an IC50 [1] of 13 nM and a Ratio IC50 [2] of 12.
With `Cc1ccc(-c2c3c([nH]c(=O)c2C#N)C(C(C)C)CNC3)cc1.Cl` (racemic) the Drug metabolism [19] was “Metabolite_Detected”.
With `COCC1CCCc2c1[nH]c(=O)c(C#N)c2-c1ccc(C)cc1` (racemic) the Drug metabolism [19] was “Metabolite_Detected”.
